Data: patent publication US20100016232A1, “Treatment Of Inflammatory Diseases With Mammal Beta Defensins” (Novozymes A/S, priority 2008, published 2010)
Where no end group is shown, it is not given here.

Key:
[1] = test system: PBMC; assay: PBMC viability, Alamar Blue; assay type: cell-based, human
Description: (§1) Peripheral blood was drawn from healthy volunteers (with approval from the relevant ethical committee in Denmark). Heparinized blood was diluted 1/1 v/v with RPMI and were subjected to Ficoll density centrifugation within 2 h of drawing. Plasma was collected from the top from individual donors and was kept on ice until it was used at 2% in the culture medium (autologous culture medium). Isolated PBMC were resuspended in autologous culture medium and seeded in 96-well culture plates with 255.000 cells per well in a total of 200 μl. […] The concentrations used for stimulation were optimized on 3 different donors in initial experiments, for LPS two different concentrations were used to be sure to be on a cytokine level that is possible to modulate. In some experiments PBMC were treated with Dexamethason and Indomethacin alone and together with LPS or LTA as a control on downregulation of inflammatory cytokines. The supernatants were collected after incubation at 37° C. for 24 hours, and stored at −80° C. until cytokine measurement. Viability was measured by Alamar Blue (Biosource, DALL 1100) in all experiments and in some cases also by MTS (Promega) according to manufacturer's instruction and was in some experiments also judged by counting of the cells by a Nucleocounter.

[2] = test system: IL-23, human CD14+ monocyte-derived dendritic cells; assay: IL-23 in supernatants of human CD14+ monocyte-derived dendritic cells, ELISA; assay type: cell-based
Description: The DCs were prepared according to a modified protocol originally described by Romani et al. Briefly, peripheral blood mononuclear cells (PBMCs) were purified from buffy coats of healthy donors by centrifugation over a Ficoll-pague (GE-healthcare) gradient. Monocytes were isolated from PBMC by positive selection of CD14+ cells by magnetic beads (Dynal, Invitrogen) according to the manufacturer's instructions. The CD14+ monocytes were cultured in 6-well plates in RPMI/2% Human AB Serum recombinant human recombinant granulocyte-macrophage colony-stimulating factor (GM-CSF, 20 ng/ml) and IL-4 (20 ng/ml) (PeproTech) for 6 days, replenishing the medium/cytokines after 2 and 5 days.
(§2) Cell culture supernatants were collected and stored at −80° C. Amounts of IL-23 was measured by standard sandwich ELISA using commercially available antibodies and standards according to the manufacturer's protocols (eBioscience).

[3] = test system: IL-23, human PBMC; assay: IL-23 in supernatants of human PBMC, ELISA; assay type: cell-based
Description: as §1, with “Nucleocounter. […]” for “Nucleocounter.”
as §2

[4] = test system: DSS-induced colitis in the mouse; assay: 10-day DSS-induced colitis, colon histological score (Example 5); assay type: in vivo; settings: day 10
Source text: Animals were divided into 5 experimental groups.
Their colons were removed and their length and weight measured after exclusion of the caecum.
Two sections (proximal and distal) of colon were taken from each animal and preserved in neutral buffered formalin for subsequent histological analysis (haematoxylin and eosin staining) according to the following scoring system:
Two sections (proximal and distal) of colon were taken from each animal, processed for histological analysis (haematoxylin and eosin staining) and scored by a blind observer according to the histological scoring system described above.

[5] = test system: IL-1β secretion from PBMC; assay: IL-1β secretion from PBMC, ELISA; assay type: cell-based, human
Description: as §1
(§3) Cytokine production in supernatants was measured by flow cytometry with a human inflammation cytometric bead array (CBA) according to manufacturer's instructions (BD) on a FACSarray flow cytometer. The following cytokines were measured: IL-8, IL-1β, IL-10, TNF, IL-12 p70, IL-6. In some experiments, cytokines were measured by ELISA kits from R&D systems (IL-10, TNF-α, IL-1β) according to the manufacturer' instruction.
In Tables 6, 7 and 8, supernatants from another donor were analysed for cytokines by ELISA instead of by a cytometric bead array by flowcytometry and here the same were observed, although the sensitivity of the assay is lower and the detection limit much higher and therefore the effects were not as significant.

[6] = test system: IL-10, dendritic cells; assay: IL-10 from dendritic cells (MUTZ-3 derived) stimulated with LPS or LTA; assay type: cell-based, human; settings: dendritic cells stimulated with hBD2 and LPS or hBD2 and LTA; results not shown
Description: To generate a dendritoid cell line, the human myeloid leukaemia cell lines MUTZ-3 (1×10^5 cells/ml) was differentiated for 7 days in the presence of rhGM-CSF (150 ng/ml) and rhIL-4 (50 ng/ml) into immature DCs. Medium was exchanged every 2-3 days.
as §3

Substance: hBD2: human beta defensin 2, SEQ ID NO:2; produced recombinantly in E. coli (Example 1); hBD2 of Tables 16-18 was prepared by chemical synthesis (GIGDPVTCLKSGAICHPVFCPRRYKQIGTCGLPGTKCCKKP; ends and bridges not checked; cysteine pairing not given here; listed as Homo sapiens)
- Viability, Alamar Blue ([1]; LPS 0.6 ng/ml, hBD2 1 μg/ml): 4230588 RFU
- Viability, Alamar Blue ([1]; LPS 0.6 ng/ml, hBD2 10 μg/ml): 4664362 RFU
- Viability, Alamar Blue ([1]; LPS 0.6 ng/ml, hBD2 100 μg/ml): 4831188 RFU
- Viability, Alamar Blue ([1]; LPS 20 ng/ml, hBD2 1 μg/ml): 4561739 RFU
- Viability, Alamar Blue ([1]; LPS 20 ng/ml, hBD2 10 μg/ml): 4623818 RFU
- Viability, Alamar Blue ([1]; LPS 20 ng/ml, hBD2 100 μg/ml): 4765256 RFU
- Viability, Alamar Blue ([1]; LTA 1.25 μg/ml, hBD2 1 μg/ml): 4148294 RFU
- Viability, Alamar Blue ([1]; LTA 1.25 μg/ml, hBD2 10 μg/ml): 4677870 RFU
- Viability, Alamar Blue ([1]; LTA 1.25 μg/ml, hBD2 100 μg/ml): 4664185 RFU
- Viability, Alamar Blue ([1]; Medium, hBD2 1 μg/ml): 4064143 RFU
- Viability, Alamar Blue ([1]; Medium, hBD2 10 μg/ml): 3683369 RFU
- Viability, Alamar Blue ([1]; Medium, hBD2 100 μg/ml): 3950053 RFU
- cytotoxic effect on the cells ([1]; human PBMC, MTS and Alamar Blue, Tables 4 and 5): no cytotoxic effect
- IL-23 ([2]; LPS (100 ng/ml) and IFN-γ (20 ng/ml), hBD2 1 μg/ml): 3833 pg/mL
- IL-23 ([2]; LPS (100 ng/ml) and IFN-γ (20 ng/ml), hBD2 10 μg/ml): 3308 pg/mL
- IL-23 ([2]; LPS (100 ng/ml) and IFN-γ (20 ng/ml), hBD2 30 μg/ml): 3042 pg/mL
- IL-23 ([2]; LPS (100 ng/ml) and IFN-γ (20 ng/ml), hBD2 100 μg/ml): 2145 pg/mL
- IL-23 ([2]; Unstimulated, hBD2 10 μg/ml): 451 pg/mL
- IL-23 ([3]; Control (medium), treatment 1 μg/ml): 218 pg/mL
- IL-23 ([3]; Control (medium), treatment 10 μg/ml): 211 pg/mL
- IL-23 ([3]; Control (medium), treatment 100 μg/ml): 207 pg/mL
- IL-23 ([3]; LPS 0.6 ng/ml, treatment 1 μg/ml): 338 pg/mL
- IL-23 ([3]; LPS 0.6 ng/ml, treatment 10 μg/ml): 462 pg/mL
- IL-23 ([3]; LPS 0.6 ng/ml, treatment 100 μg/ml): 484 pg/mL
- IL-23 ([3]; LPS 20 ng/ml, treatment 1 μg/ml): 263 pg/mL
- IL-23 ([3]; LPS 20 ng/ml, treatment 10 μg/ml): 295 pg/mL
- IL-23 ([3]; LPS 20 ng/ml, treatment 100 μg/ml): 488 pg/mL
- IL-23 ([3]; LTA 5 μg/ml, treatment 1 μg/ml): 383 pg/mL
- IL-23 ([3]; LTA 5 μg/ml, treatment 10 μg/ml): 438 pg/mL
- IL-23 ([3]; LTA 5 μg/ml, treatment 100 μg/ml): 810 pg/mL
- Histology Score Distal Colon ([4]; 0.1 mg/kg i.v. daily): 3.67
- Histology Score Distal Colon ([4]; 1 mg/kg i.v. daily): 4.13
- Histology Score Distal Colon ([4]; 10 mg/kg i.v. daily): 4.78
- IL-1β ([5]; LPS 0.6 ng/ml, hBD2 1 μg/ml): 0.237 ng/mL
- IL-1β ([5]; LPS 0.6 ng/ml, hBD2 10 μg/ml): 0.268 ng/mL
- IL-1β ([5]; LPS 0.6 ng/ml, hBD2 100 μg/ml): 0.275 ng/mL
- IL-1β ([5]; LPS 20 ng/ml, hBD2 1 μg/ml): 0.638 ng/mL
- IL-1β ([5]; LPS 20 ng/ml, hBD2 10 μg/ml): 0.354 ng/mL
- IL-1β ([5]; LPS 20 ng/ml, hBD2 100 μg/ml): 0.395 ng/mL
- IL-1β ([5]; LTA 1.25 μg/ml, hBD2 1 μg/ml): 0.224 ng/mL
- IL-1β ([5]; LTA 1.25 μg/ml, hBD2 10 μg/ml): 0.193 ng/mL
- IL-1β ([5]; LTA 1.25 μg/ml, hBD2 100 μg/ml): 0.281 ng/mL
- IL-10 [6]: induced
